The results in this text go back to patent US9017719B2, “Injectable drug carrier comprising layered double hydroxide” (Nanohybrid Co., Ltd., priority 2005, dated 2015).

What is called LD50 is the dose expected to kill half of the subjects tested. A high value points to lower toxicity.

SMILES strings stand for the structures.

This data set can be described thus: In vivo toxicity test of LDH-MTX hybrid and MTX, intraperitoneal, death rate. The conditions noted are these: mouse, ip, Balb/c mice, dosed weekly for three weeks. As to the method: Like in the in vivo toxicity test of LDH of Example 2, small animal models, Balb/c mice (6-7 weeks old) were purchased and managed in cages (5 mice/cage). MTX was administered intraperitoneally to 10 mice at each concentration of 50, 75, and 100 mg/kg and the LDH-MTX hybrid synthesized in Example 3 was administered intraperitoneally to 10 mice at each concentration of 3, 6, 12.5, 25, 50, 75, and 100 mg/kg. The body weight of each mouse was measured every week for three weeks and a dosage of drug adjusted to the newly measured weight was administered. The body weights of the mice died during the test were excluded from statistical analysis. A death rate with respect to the concentration of MTX is represented by total number of mice survived in FIG. 7a and a death rate with respect to the concentration of the LDH-MTX hybrid is represented by the total number of mice survived in FIG. 7b. […] That is, the lethal dose of the LDH-MTX hybrid was equal to ⅓ of that of MTX.

`CN(Cc1cnc2nc(N)nc(N)c2n1)c1ccc(C(=O)N[C@@H](CCC(=O)O)C(=O)O)cc1` [MTX, methotrexate] yielded a 50% lethal dose (LD50) at 3 weeks of 75 mg/kg.
